pIC50: −log10 of the molar value.
Experiments:
[1] = test system: Trypanosoma brucei rhodesiense; assay: Antitrypanosomal activity against Trypanosoma brucei rhodesiense STIB900 by Alamar blue growth inhibition assay; type: functional, organism-based
L6 = assay: Cytotoxicity against rat L6 cells; type: cell-based
[2] = Selectivity index, ratio of IC50 for rat L6 cells to IC50 for Trypanosoma brucei rhodesiense STIB900; type: toxicity, cell-based; conditions: read-out: Ratio IC50

Row | pIC50 [1] | Compound | pIC50 (L6) | selectivity ratio [2]
1 | 4.06 | O=c1c2cc([N+](=O)[O-])ccc2n2n1Cc1ccccc1CC2 | < 3.47 | > 4
2 | 4.31 | O=c1c2cc([N+](=O)[O-])ccc2n(Cc2ccccc2)n1Cc1ccccc1 | 4.43 | 0.8
3 | 3.60 | O=c1c2cc([N+](=O)[O-])ccc2[nH]n1Cc1ccccn1 | 3.54 | 1.1
4 | 4.18 | O=c1c2cc([N+](=O)[O-])ccc2n2n1Cc1ccccc1C2 | 3.65 | 3.3
5 | 4.13 | O=[N+]([O-])c1ccc2[nH]nc(OCc3ccccc3Cl)c2c1 | 4.52 | 0.4
6 | 3.72 | COc1nn(Cc2ccccc2F)c2ccc([N+](=O)[O-])cc12 | < 3.48 | > 1.7
7 | 3.77 | O=c1[nH]n(Cc2ccccc2F)c2ccc([N+](=O)[O-])cc12 | 3.68 | 1.3
8 | 3.79 | O=c1c2cc([N+](=O)[O-])ccc2[nH]n1Cc1ccccc1 | 3.63 | 1.4
9 | 3.79 | Cn1c(=O)c2cc([N+](=O)[O-])ccc2n1Cc1ccccc1 | 3.78 | 1
10 | 5.09 | Cn1c2ccc([N+](=O)[O-])cc2c(=O)n1Cc1ccccc1 | 4.36 | 5.3
11 | 4.70 | CCCn1c2ccc([N+](=O)[O-])cc2c(=O)n1Cc1ccccc1 | 4.11 | 3.9
12 | 4.01 | O=C(NN1Cc2ccccc2C1)c1cc([N+](=O)[O-])ccc1Cl | 4.70 | 0.2
13 | 3.75 | O=C(Cc1cc([N+](=O)[O-])ccc1F)NN1Cc2ccccc2C1 | 3.77 | 0.9
14 | 5.15 | O=C(NCc1cc([N+](=O)[O-])ccc1N1CCc2ccccc2C1)NCc1cc([N+](=O)[O-])ccc1N1CCc2ccccc2C1 | < 3.77 | > 23.6
15 | 3.92 | COc1nn(Cc2ccccc2Cn2nc(OC)c3cc([N+](=O)[O-])ccc32)c2ccc([N+](=O)[O-])cc12 | < 3.69 | > 1.7
16 | < 3.38 | O=C(NN1Cc2ccccc2C1)c1ccccc1 | 4.16 | 0.2
17 | 3.78 | O=C(NN1Cc2ccccc2C1)c1ccccc1F | 3.62 | 1.5
18 | 4.40 | O=C(NN1Cc2ccccc2C1)c1cc([N+](=O)[O-])ccc1F | < 3.48 | > 8.3
19 | < 3.44 | O=C(NN1Cc2ccccc2C1)c1cccnc1Cl | < 3.44 | 
20 | 3.49 | O=C(Cc1cc([N+](=O)[O-])ccc1F)NN1CCCCC1 | < 3.45 | > 1.1
21 | < 3.39 | CN(C)NC(=O)c1cc([N+](=O)[O-])ccc1Cl | < 3.39 | 
22 | 3.67 | O=C(NN1CCCCC1)c1cc([N+](=O)[O-])ccc1Cl | < 3.45 | > 1.7
23 | 4.64 | O=C(NN1CCc2ccccc2C1)c1cc([N+](=O)[O-])ccc1F | < 3.50 | > 13.7
24 | 4.26 | O=C(NN1CCc2ccccc2C1)c1cc([N+](=O)[O-])ccc1Cl | 4.66 | 0.4
25 | 4.09 | O=C(NN1Cc2ccccc2CN1)c1cc([N+](=O)[O-])ccc1Cl | 3.75 | 2.2
26 | 4.25 | O=C(NN(Cc1ccccc1)Cc1ccccc1)c1ccccc1Cl | 4.29 | 0.9
27 | 4.42 | O=C(NN(Cc1ccccc1)Cc1ccccc1)c1cc([N+](=O)[O-])ccc1Cl | 4.38 | 1.1
28 | 4.77 | O=C(NN(Cc1ccccc1)Cc1ccccc1)c1cc([N+](=O)[O-])ccc1F | 4.71 | 1.1

Row | pIC50 [1] | Compound | pIC50 (L6) | selectivity ratio [2]
29 | 5.13 | O=C(NN(c1ccccc1)c1ccccc1)c1cc([N+](=O)[O-])ccc1Cl | 4.88 | 1.8
30 | 5.25 | O=C(NN(c1ccccc1)c1ccccc1)c1cc([N+](=O)[O-])ccc1F | 5.49 | 0.6
31 | 4.85 | CCOc1ccc([N+](=O)[O-])cc1C(=O)NN(c1ccccc1)c1ccccc1 | 3.73 | 13
32 | < 3.31 | [O-]C1=N[N+]2(CCCCC2)c2ccccc21 | < 3.31 | 
33 | 3.72 | O=[N+]([O-])c1ccc2c(c1)C([O-])=N[N+]21CCCCCC1 | < 3.42 | > 2
34 | 3.51 | Cn1[nH]c(=O)c2cc([N+](=O)[O-])ccc21 | < 3.29 | > 1.7
35 | 3.96 | O=c1[nH]n(-c2ccccc2)c2ccc([N+](=O)[O-])cc12 | 3.80 | 1.4
36 | 4.97 | CN(C)CCOc1nn(Cc2ccccc2)c2ccc([N+](=O)[O-])cc12 | 4.24 | 5.3
37 | 5.28 | CN(C)CCCOc1nn(Cc2ccccc2F)c2ccc([N+](=O)[O-])cc12 | 4.49 | 6.1
38 | 3.70 | O=[N+]([O-])c1ccc2c(c1)CC([O-])=N[N+]21CCCCC1 | 3.49 | 1.6
39 | 3.62 | C[n+]1cccc2c(=O)n3n(c21)Cc1ccccc1C3 | < 3.58 | > 1.1
40 | 3.67 | O=C1C[N+]2(CCCCC2)c2ccc([N+](=O)[O-])cc21 | 4.07 | 0.4
41 | 4.31 | CCCCn1c2ccc([N+](=O)[O-])cc2c(=O)n1Cc1ccccc1 | 4.33 | 1
42 | 3.86 | Cn1c2ccc([N+](=O)[O-])cc2c(=O)n1-c1ccccc1 | 4.18 | 0.5
43 | 4.67 | O=C1CN(CCCCCN2CCCCC2)c2ccc([N+](=O)[O-])cc2N1 | 4.01 | 4.6
44 | 4.84 | CN1C(=O)CN(CCCCCN2CCCCC2)c2ccc([N+](=O)[O-])cc21 | 4.28 | 3.6
45 | 4.20 | CN1C(=O)C2Cc3ccccc3CCN2c2ccc([N+](=O)[O-])cc21 (stereo not drawn) | 4.82 | 0.2
46 | 3.72 | CN1C(=O)C2=Cc3ccccc3CCN2c2ccc([N+](=O)[O-])cc21 | < 3.51 | > 1.6
47 | 3.81 | CN1C(=O)C2CCCCN2c2ccc([N+](=O)[O-])cc21 (stereo not drawn) | 3.99 | 0.7
48 | 3.92 | CON1C(=O)C2CCCCN2c2ccc([N+](=O)[O-])cc21 (stereo not drawn) | 4.17 | 0.6
49 | 4.21 | CN1C(=O)C2Cc3ccccc3CN2c2ccc([N+](=O)[O-])cc21 (stereo not drawn) | 4.73 | 0.3
50 | 4.09 | O=[N+]([O-])c1ccc2c(c1)c(OCc1ccccc1)nn2Cc1ccccc1-c1ccccc1Cn1nc(OCc2ccccc2)c2cc([N+](=O)[O-])ccc21 | < 3.86 | > 1.7
51 | 4.24 | COc1nn(Cc2cccc(Cn3nc(OC)c4cc([N+](=O)[O-])ccc43)n2)c2ccc([N+](=O)[O-])cc12 | 3.82 | 2.6
52 | 4.00 | COc1nn(Cc2ccccc2Cn2nc(OC)c3ccccc32)c2ccccc12 | 4.35 | 0.4
53 | 5.77 | CSc1ccc(OCc2ncc([N+](=O)[O-])n2C)cc1 [FEXINIDAZOLE] |  | > 322
54 | < 3.50 | O=C(NN(Cc1ccccc1)Cc1ccccc1)c1ccccc1 [N',N'-DIBENZYLBENZOHYDRAZIDE] | < 3.50 | 
55 |  | COc1cc([C@@H]2c3cc4c(cc3[C@H](O)[C@H]3COC(=O)[C@H]23)OCO4)cc(OC)c1OC [PODOFILOX] | 7.72 | 

Reference: ChEMBL document CHEMBL2046395, “Discovery of nitroheterocycles active against African trypanosomes. In vitro screening and preliminary SAR studies” (Bioorg Med Chem Lett, 2012)
